Reference: PMC9207808 (ACS Chemical Biology, 2022)
Residues, ends and D or L forms follow the SMILES beside them.

Key:
DocSTm [1] = assay: Differential scanning fluorimetry (thermal stabilisation of Doc); assay type: binding, S. Typhimurium; settings: for Average Tm / Tm: DocSTm 5 µM + 50 µM binder; for Average Tm: average of 3 replicates; for melting temperature shift ΔTm: DSF, DocSTm 5 μM, analyte 50 μM, Tm with analyte minus Tm of free DocSTm (42.9 ± 0.9 °C), SYPRO Orange, 20 mM K2HPO4, 50 mM (NH4)2SO4, pH 8.0, triplicate
Experimental: Experiments were performed in a Mx3005P qPCR System (Agilent) collecting fluorescence data with a temperature ramp of 25 to 95 °C. Samples were prepared in a buffer containing 20 mM K2HPO4 and 50 mM (NH4)2SO4 at pH 8.0. The SYPRO Orange dye (Sigma-Aldrich, 5000× stock in DMSO) was used to monitor protein denaturation and was diluted to a final concentration of 3×. For binding experiments, the final concentration of Doc was 5 μM. Each condition was performed in triplicate (ESI section 4) and the melting curves were plotted using GraphPad Prism 5 (GraphPad Software, U.S.A.). The melting temperatures were obtained by fitting the sigmoidal section of the curves to a Boltzmann sigmoid function.

DocSTm [2] = assay: Surface plasmon resonance binding to immobilised Doc; parameters: species or system S. Typhimurium; settings: for koff × 10^-6 / kon × 10^6: 1:1 kinetic fit, mean ± SD of at least 3 replicates; for kon × 10^6: single-cycle kinetics (multicycle for PhdSTm1-73); for Half-life of the complex: t1/2 = ln2 / koff
Experimental: Experiments were performed in a Biacore S200 (Cytiva) with a Series S sensor chip NTA (Cytiva). The data was analyzed using the Biacore Evaluation Software (Cytiva) and curves were plotted using GraphPad Prism 5 (GraphPad Software, U.S.A.). All experiments were performed at 22 °C with a running buffer containing 10 mM HEPES, 500 mM NaCl, 50 μM EDTA, and 0.005% (v/v) TWEEN 20 at pH 8.0. The surface was conditioned following the standard manufacturer’s guidelines and protein immobilization was performed with a 30–60 s pulse (flow rate of 5 μL/min) of Doc (150 nM) in running buffer. […] Surface regeneration was performed with a 1 min pulse of 0.5 M imidazole followed by a 1 min pulse of 0.35 M of EDTA at pH 8.0.
Binding to Doc was performed using a multicycle kinetics (MCK) setup for peptides 7, 10, and 14, while the remaining samples were tested using a single-cycle kinetics (SCK) setup. The surface was fully regenerated in between each analyte in both cases. In the MCK experiments, increasing concentrations of each analyte were injected with an 80 s pulse (30 μL/min) and dissociation times varied depending on the time required to fully dissociate the complex. The double-referenced sensorgrams (raw data subtracted from a blank injection and reference surface responses) were analyzed using a kinetic and/or a steady-state 1:1 binding model. In the SCK experiments, typically six concentrations of each analyte were sequentially injected with 80 s pulses (30 μL/min), and dissociation times varied depending on the time required to dissociate at least 5% of the complex. The double-referenced sensorgrams were fitted using a kinetic 1:1 binding model.
At least three independent replicates were measured for each analyte (ESI section 5). When a steady-state fit was applied, the reported Kd and its uncertainty correspond, respectively, to the average and standard deviations of the Kd obtained in each measurement. When a kinetic fit was applied, the reported rate constants (kon and koff) and their uncertainties correspond, respectively, to the average and standard deviations of the rate constants obtained in each measurement. In this case, reported Kd were calculated using the equation below, and the standard deviation of the rate constants was propagated. [drawing 1]

[3] = SPR, kinetic fit, KD calculated from mean koff and kon, SD propagated, 22 °C, pH 8.0

Row | Compound | Average Tm (DocSTm [1]) [°C] | Tm (DocSTm [1]; replicate 1) [°C] | Tm (DocSTm [1]; replicate 2) [°C] | Tm (DocSTm [1]; replicate 3) [°C] | Kd (DocSTm [2]; SPR kinetic fit, replicate 1) [nM] | Kd (DocSTm [2]; SPR kinetic fit, replicate 2) [nM] | Kd (DocSTm [2]; SPR kinetic fit, replicate 3) [nM] | koff × 10^-6 (DocSTm [2]; SPR, 22 °C, pH 8.0) | kon × 10^6 (DocSTm [2]; SPR, 22 °C, pH 8.0) | Kd (DocSTm [2]; [3]) [nM] | Half-life of the complex (DocSTm [2]) [h] | melting temperature shift ΔTm (DocSTm [1]) [°C] | Kd (DocSTm [2]; SPR kinetic fit, replicate 4) [nM]
1 | CC[C@H](C)[C@H](NC(=O)[C@H](C)NC(=O)[C@H](C)NC(=O)[C@H](Cc1ccccc1)NC(=O)[C@H](CCC(=O)O)NC(=O)[C@H](CC(=O)O)NC(=O)[C@H](CC(=O)O)NC(=O)[C@H](CCSC)NC(=O)[C@H](Cc1c[nH]c2ccccc12)NC(C)=O)C(=O)N[C@@H](CCSC)C(=O)N[C@@H](C)C(=O)N[C@H](C(=O)N[C@@H](Cc1c[nH]cn1)C(=O)N[C@@H](C)C(=O)N[C@@H](CC(N)=O)C(=O)N[C@@H](CCC(=O)O)C(=O)N[C@@H](CC(C)C)C(=O)N[C@@H](CCCNC(=N)N)C(=O)N[C@@H](CCC(=O)O)C(=O)N[C@@H](CC(C)C)C(=O)N[C@@H](C)C(=O)N[C@@H](CC(=O)O)C(=O)N[C@@H](CCCCN)C(=O)O)C(C)C [peptide 11] (Ac-WMDDEFAAIMAVHANELRELADK-OH; C-terminus assumed) | 69.0 ± 0.2 | 68.8 | 69.2 | 68.9 | 0.13 | 0.0743 | 0.0769 | 197 ± 49 ×10^-6 s-1 | 2.350 ± 1.103 ×10^6 M-1 s-1 | 0.084 ± 0.045 | 1.0 ± 0.2 |  | 
2 | CC[C@H](C)[C@H](NC(=O)[C@H](C)NC(=O)[C@H](C)NC(=O)[C@H](Cc1ccccc1)NC(=O)[C@H](CCC(=O)O)NC(=O)[C@H](CC(=O)O)NC(=O)[C@H](CC(=O)O)NC(=O)[C@H](CCSC)NC(=O)[C@H](Cc1c[nH]c2ccccc12)NC(C)=O)C(=O)N[C@@H](CCSC)C(=O)N[C@@H](C)C(=O)N[C@H](C(=O)N[C@@H](Cc1c[nH]cn1)C(=O)NCC(=O)N[C@@H](C)C(=O)N[C@@H](CCC(=O)O)C(=O)N[C@@H](CC(C)C)C(=O)N[C@@H](CCCNC(=N)N)C(=O)N[C@@H](CCC(=O)O)C(=O)N[C@@H](CC(C)C)C(=O)N[C@@H](C)C(=O)N[C@@H](CC(=O)O)C(=O)N[C@@H](CCCCN)C(=O)O)C(C)C [peptide 12] (Ac-WMDDEFAAIMAVHGAELRELADK-OH; C-terminus assumed) | 71.1 ± 0.7 | 71.8 | 71.0 | 70.4 | 0.251 | 0.166 | 0.0853 | 203 ± 103 ×10^-6 s-1 | 1.396 ± 0.154 ×10^6 M-1 s-1 | 0.145 ± 0.076 | 1.0 ± 0.5 | 28.2 ± 1.2 | 0.0833
3 | CC[C@H](C)[C@H](NC(=O)[C@H](C)NC(=O)[C@H](C)NC(=O)[C@H](Cc1ccccc1)NC(=O)[C@H](CCC(=O)O)NC(=O)[C@H](CC(=O)O)NC(=O)[C@H](CC(=O)O)NC(=O)[C@H](CCSC)NC(=O)[C@H](Cc1c[nH]c2ccccc12)NC(C)=O)C(=O)N[C@@H](CCSC)C(=O)N[C@@H](C)C(=O)N[C@H](C(=O)N[C@@H](Cc1c[nH]cn1)C(=O)NCC(=O)N[C@@H](CC(N)=O)C(=O)N[C@@H](CCC(=O)O)C(=O)N[C@@H](CC(C)C)C(=O)N[C@@H](C)C(=O)N[C@@H](CCC(=O)O)C(=O)N[C@@H](CC(C)C)C(=O)N[C@@H](C)C(=O)N[C@@H](CC(=O)O)C(=O)N[C@@H](CCCCN)C(=O)O)C(C)C [peptide 15] (Ac-WMDDEFAAIMAVHGNELAELADK-OH; C-terminus assumed) | 70.6 ± 0.1 | 70.6 | 70.7 | 70.4 | 0.124 | 0.106 | 0.112 | 185 ± 52 ×10^-6 s-1 | 1.602 ± 0.332 ×10^6 M-1 s-1 | 0.115 ± 0.04 | 1.0 ± 0.3 | 27.7 ± 0.9 | 
